What all share (assay type): cell-based
Test [1] concerns Staphylococcus aureus TI-1. Nature of the test: Antibacterial activity (IC), broth microplate as in Example 4 (Example 5, Table 40). Particulars: TI1, 18 h. On the procedure: (§1) A suitable amount of a sample was dissolved in dimethylsulfoxide (DMSO), and the resultant solution was diluted with the same amount of sterilized distilled water to prepare a bulk sample of 1,000 µg/ml. Mueller-Hinton broth (product of DIFCO) was dispensed into each well of 96-well microplate. Thereafter, the bulk specimen was added to the first well of a row, and successively diluted (10-fold each time) with sterilized distilled water. Separately, a bacterial cell suspension for the test (Staphylococcus aureus 209-P) which had been cultured in the above-mentioned broth overnight at 37°C was inoculated to each well so that the final inoculation amount of 10^6 CFU/ml was attained. The final concentrations of the samples were 100, 10, and 1 µg/ml.
(§2) The antibacterial action was evaluated by the inhibitory concentration (hereinafter abbreviated as IC) at which propagation of the bacteria cultured at 37°C for 18 hours was inhibited. Inhibition was determined by the turbidity of the medium. The expressions "IC≤100", "≤10", and "≤1" indicate that MIC-equivalent values obtained at the succesive […] dilution of the sample are 100-10 µg/ml, 10-1 µg/ml, and not more than 1 µg/ml, respectively. […] (In the subsequent Examples, the same rule applies correspondingly.) Table 39
In a manner similar to that described in Example 4, antibacterial activity of the invention compound was determined. The bacterium used for the test was Staphylococcus aureus TI-1.

The subject of test [2] is Pasteurella multocida (Kobe-6). Nature of the test: Antibacterial activity (IC), broth microplate as in Example 4 (Example 6, Table 41). The conditions noted are these: 18 h, origin pig. The protocol: as §1, §2
In a manner similar to that described in Example 4, antibacterial activity of the invention compound was determined. The bacterium used for the test was Pasteurella Kobe-6 (origin: pig; Pasteurella multocida).

In test [3] the test system is Staphylococcus aureus 209-P. Nature of the test: Antibacterial activity (IC), Mueller-Hinton broth, 96-well microplate (Example 4, Table 39). The conditions noted are these: 37°C, 18 hours. The protocol:
as §1, §2

Test [4] has as its system methicillin-resistant Staphylococcus aureus (MRSA) isolated from humans. The test can be described thus: Antibacterial activity (IC), Mueller-Hinton agar containing the sample (Example 8, Table 43). Particulars: Staphylococcus aureus, MRSA, 18 h. On the procedure:
as §2
(§3) A suitable amount of a sample was dissolved in dimethylsulfoxide (DMSO), after which the resulting solution was diluted with the same amount of sterilized distilled water to prepare a bulk sample of 1,000 µg/ml. Separately, a bacterial liquid for the test (methicillin-resistant Staphylococcus aureus (MRSA) isolated from humans) which had been cultured in Mueller-Hinton broth (product of DIFCO) was prepared and inoculated to a Mueller-Hinton agar (product of DIFCO) containing the sample so that the final inoculation amount of 10^6 CFU/ml was achieved. The final concentrations of the samples were 100, 10, and 1 µg/ml.
(§4) After culturing at 37°C for 18 hours, the antibacterial activity was evaluated in terms of IC in a manner similar to that described in Example 4.

Test [5] deals with Bordetella bronchiseptica (SM2-4). The test can be described thus: Antibacterial activity (IC), broth microplate as in Example 4 (Example 7, Table 42). The conditions noted are these: 18 h. On the procedure: as §1, §2
In a manner similar to that described in Example 4, antibacterial activity of the invention compound was determined. The bacterium used for the test was Bordetella bronchiseptica (SM2-4).

The subject of test [6] is Bordetella bronchiseptica (S1). The test can be described thus: Antibacterial activity (IC), agar as in Example 8 (Example 18, Table 51). Particulars: 18 h. On the procedure:
as §2, §3, §4
(§5) In a manner similar to that described in Example 8, antibacterial activity of the invention compound was determined. The bacterium used for the test was Bordetella bronchiseptica (S1) and Bordetella bronchiseptica (SM2-4).

In test [7] the test system is Bordetella bronchiseptica (SM2-4). The test is described as above. Particulars: 18 h. The protocol: as §2, §3, §4, §5
Test [8] relates to Staphylococcus aureus (209-P). Nature of the test: Antibacterial activity (IC), agar as in Example 8 (Example 15, Table 48). The conditions noted are these: 18 h. In short, it runs like this: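 Samples in DMSO, diluted with sterile water, incorporated into Mueller-Hinton agar at 1, 10 and 100 µg/ml final. Bacteria seeded at 10^6 CFU/ml and grown 18 h at 37°C. Inhibition read as turbidity; values reported as IC ranges rather than exact MICs.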

The test system of test [9] is methicillin-resistant Staphylococcus aureus (MRSA) from humans. The test can be described thus: Antibacterial activity (IC), agar as in Example 8 (Example 19, Table 52). Particulars: 18 h. The gist of the method:
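MRSA human isolate at 10^6 CFU/ml on Mueller-Hinton agar containing compound at 100, 10 or 1 µg/ml, grown 18 h at 37 °C. IC is the lowest tested level that inhibited growth, binned as ≤100, ≤10 or ≤1 µg/ml.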

In test [10] the test system is Pasteurella multocida (Kobe-6). Nature of the test: Antibacterial activity (IC), agar as in Example 8 (Example 17, Table 50). Particulars: 18 h, origin pig. In short, it runs like this:
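Agar dilution on Mueller-Hinton agar with compound at 100, 10 and 1 µg/ml, inoculated at 10^6 CFU/ml with pig-origin strain Kobe-6. After 18 h at 37 °C, IC scored from turbidity and reported as a band (≤100, ≤10, ≤1 µg/ml).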

Test [11] concerns Streptococcus aureus (TI-1). The test can be described thus: Antibacterial activity (IC), agar as in Example 8 (Example 16, Table 49). Particulars: 18 h. The gist of the method:
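Compound at final 100, 10 or 1 µg/ml in Mueller-Hinton agar, inoculated with […] aureus (TI-1) at 10^6 CFU/ml and cultured 37°C for 18 h. Inhibition read from medium turbidity; IC given as 100-10, 10-1 or ≤1 µg/ml ranges from 2-fold dilution.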

Test [12] deals with Enterococcus from fish. Nature of the test: Antibacterial activity (IC), agar as in Example 8, media with 1.5% NaCl, 25°C (Example 20, Tables 53-55). The gist of the method:
(§6)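 Growth inhibition was scored by turbidity after culture at 25°C, with IC bands set from 2-fold-dilution MIC-equivalents. Samples were tested at final 100, 10 and 1 µg/ml in Mueller-Hinton agar with 1.5% NaCl, seeded with 10^6 CFU/ml of the fish isolates.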

Test [13] relates to Pasteurella from fish. The description is as above. The conditions noted are these: Pasteurella piscicida KP94-02. In short, it runs like this: as §6

≈ marks a conversion by molar mass, not a printed value. Where only a bound is given, the exact number is not on record here.

In the case of `Cc1cc(Oc2ccc(C(F)(F)F)cc2Cl)ccc1OC(C)C(=O)C(C#N)c1cccc(Br)c1` (stereo not shown) [compound 47], the MIC in test [1] is at most 1 µg/mL; in [2] it was 10 to 100 µg/mL (≈ 18.1 to 181 µM); in [3] it was 1 to 10 µg/mL (≈ 1.81 to 18.1 µM); in test [4] (MRSA strain 891179, 37°C), 1 to 10 µg/mL (≈ 1.81 to 18.1 µM); in test [4] (MRSA strain 891185, 37°C), 1 to 10 µg/mL (≈ 1.81 to 18.1 µM); in test [4] (MRSA strain 891187, 37°C), 1 to 10 µg/mL (≈ 1.81 to 18.1 µM). The MIC was in the range of 1 to 10 µg/mL (≈ 1.81 to 18.1 µM) in test [4] (MRSA strain 891192, 37°C); 1 to 10 µg/mL (≈ 1.81 to 18.1 µM) in [4] (MRSA strain 900048, 37°C); 1 to 10 µg/mL (≈ 1.81 to 18.1 µM) in test [4] (MRSA strain 900056, 37°C); 10 to 100 µg/mL (≈ 18.1 to 181 µM) in test [5].
Take `Cc1cccc(C(C#N)C(=O)C(C)Oc2ccc(Oc3ncc(C(F)(F)F)cc3Cl)cc2)c1` (stereo not shown) [compound 16]: the MIC was in the range of 1 to 10 µg/mL (≈ 2.11 to 21.1 µM) in test [1], 10 to 100 µg/mL (≈ 21.1 to 211 µM) in test [2], 10 to 100 µg/mL (≈ 21.1 to 211 µM) in test [3] and 10 to 100 µg/mL (≈ 21.1 to 211 µM) in [5].
Consider `Cc1cc(Oc2ccc(C(F)(F)F)cc2Cl)cc(OC(C)C(=O)C(C#N)c2ccc(Cl)c(Cl)c2)c1` (stereo not shown) [Compound No. 112, 4-[3-(2-chloro-4-trifluoromethylphenoxy)-5-methylphenoxy]-2-(3,4-dichlorophenyl)-3-oxopentanonitrile], for which the MIC was 10 to 100 µg/mL (≈ 18.4 to 184 µM) in test [6]; 10 to 100 µg/mL (≈ 18.4 to 184 µM) in test [7]; at most 1 µg/mL in test [8]; at most 1 µg/mL in test [9] (MRSA strain 891179); at most 1 µg/mL in [9] (MRSA strain 891185); at most 1 µg/mL in [9] (MRSA strain 891187). Besides, the minimal inhibitory concentration (MIC) in test [9] (MRSA strain 891192) is at most 1 µg/mL; in test [9] (MRSA strain 900048), at most 1 µg/mL; in test [9] (MRSA strain 900056), at most 1 µg/mL; in test [10] it was at most 1 µg/mL; in [11], at most 1 µg/mL; in [12] (Enterococcus Seriolicida SE94-002), 1 to 10 µg/mL (≈ 1.84 to 18.4 µM). The MIC in test [13] lay within 1 to 10 µg/mL (≈ 1.84 to 18.4 µM). Moreover, the IC in test [12] (Enterococcus Seriolicida HI), in test [12] (Enterococcus Seriolicida KG86050), in test [12] (Enterococcus Seriolicida MS89060), in test [12] (Enterococcus Seriolicida MS89064), in test [12] (Enterococcus Seriolicida MS89066) and in test [12] (Enterococcus Seriolicida MS89068) was ≤10 (10-1 µg/ml) each time. The IC in [12] (Enterococcus Seriolicida SE94-001), in [12] (Enterococcus Seriolicida SE94-003), in test [12] (Enterococcus Seriolicida SE94-004) and in test [12] (Enterococcus Seriolicida SE94-005) was ≤10 (10-1 µg/ml) each time.

The term MIC denotes the lowest concentration found to suppress growth. Lower therefore signals a more susceptible organism.
